Test results from patent publication US4468511A, “C-20- And C-23-Modified macrolide derivatives” (Eli Lilly and Company, priority 1983, dated 1984).
Values after ≈ are worked out from the molar mass of the structure shown. Like-named read-outs stand apart in the source and are kept apart here.

Key:
[1] = system: Staphylococcus aureus S13E; assay: microbe, parasite or virus in culture; type: cell-based
Method: (§1) The MIC's in Table II were determined by standard agar-dilution assays. The MIC's in Table III were obtained using a conventional broth-dilution microtiter test.

[2] = system: Staphylococcus epidermidis EPI1; assay: microbe, parasite or virus in culture; type: cell-based; conditions: Staphylococcus epidermidis, EPI1
Method: as §1

[3] = system: Staphylococcus epidermidis EPI2; assay: MIC, standard agar-dilution assay; type: cell-based; conditions: agar-dilution; Staphylococcus epidermidis EPI2; read-out: MIC
Method: as §1

[4] = system: Staphylococcus aureus X400; assay: MIC, standard agar-dilution assay; type: cell-based
Method: as §1

[5] = system: Haemophilus influenzae C.L.; assay: MIC, standard agar-dilution assay; type: cell-based
Method: as §1

[6] = system: Haemophilus influenzae 76; assay: MIC, standard agar-dilution assay; type: cell-based
Method: as §1

[7] = system: Streptococcus Group D X66; assay: MIC, standard agar-dilution assay; type: cell-based
Method: (§2) Certain of the derivatives are active against some gram-negative bacteria, such as Pasteurella species. The MIC's in Table II were determined by standard agar-dilution assays. The MIC's in Table III were obtained using a conventional broth-dilution microtiter test.

[8] = system: Streptococcus pyogenes 9960; assay: MIC, standard agar-dilution assay; type: cell-based
Method: as §2

[9] = system: Staphylococcus aureus V41; assay: MIC, standard agar-dilution assay; type: cell-based; conditions: Staphylococcus aureus, V41
Method: as §2

Escherichia coli TEM = assay: MIC, standard agar-dilution assay; type: cell-based
Method in brief: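 Minimum inhibitory concentrations against Escherichia coli were measured with a standard agar-dilution method. The result for each derivative is the lowest concentration that inhibits bacterial growth, given in ug/mL.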

[10] = system: Klebsiella pneumoniae KAE; assay: MIC, standard agar-dilution assay; type: cell-based; conditions: agar-dilution; Klebsiella pneumoniae KAE; read-out: MIC
Method in brief: (§3)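 Agar plates containing graded compound levels gave the Klebsiella value. Graded broth dilutions in microtiter plates gave the Pasteurella and Mycoplasma values.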

[11] = system: Streptococcus pyogenes C203; assay: MIC, standard agar-dilution assay; type: cell-based
Method: as §2

Escherichia coli EC14 = assay: MIC, standard agar-dilution assay; type: cell-based
Method: as §2

[12] = system: Streptococcus pneumoniae Park I; assay: MIC, standard agar-dilution assay; type: cell-based; conditions: agar-dilution; Streptococcus pneumoniae Park I; read-out: MIC
Method: as §2

[13] = system: Klebsiella pneumoniae X26; assay: MIC, standard agar-dilution assay; type: cell-based; conditions: agar-dilution; Klebsiella pneumoniae X26; read-out: MIC
Method in brief: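 MICs for the two Pasteurella strains and the Mycoplasma strain were read from a broth-dilution microtiter test. The Klebsiella strain was tested on agar instead.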

[14] = system: Staphylococcus aureus X1.1; assay: MIC, standard agar-dilution assay; type: cell-based; conditions: Staphylococcus aureus, X1.1
Method in brief: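 Minimum inhibitory concentration against Staphylococcus aureus strain X1.1 was measured with a standard agar-dilution method. The result is reported as the MIC in ug/mL, i.e. the lowest compound concentration in agar that prevents visible growth of this organism.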

[15] = system: Pasteurella multocida 17E; assay: MIC, conventional broth-dilution microtiter test; type: cell-based
Method in brief: as §3

Mycoplasma synoviae = assay: MIC, conventional broth-dilution microtiter test; type: cell-based; conditions: Mycoplasmopsis synoviae; broth-dilution microtiter; Mycoplasma synoviae; read-out: MIC
Method in brief: (§4)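 Minimum inhibitory concentrations are determined by conventional broth dilution in microtiter wells for Pasteurella and Mycoplasma isolates. For Klebsiella pneumoniae KAE, the standard agar-dilution assay is used.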

[16] = system: Pasteurella hemolytica 41D; assay: MIC, conventional broth-dilution microtiter test; type: cell-based
Method in brief: as §3

[17] = system: Pasteurella multocida 68C; assay: MIC, conventional broth-dilution microtiter test; type: cell-based; conditions: Pasteurella multocida, 68C
Method in brief: as §3

Streptococcus sp. 80 = assay: MIC, conventional broth-dilution microtiter test; type: cell-based
Method: as §2

Mycoplasma gallisepticum = assay: MIC, conventional broth-dilution microtiter test; type: cell-based; conditions: Mycoplasmoides gallisepticum
Method in brief: as §3

[18] = system: Mycoplasma gallisepticum 34159; assay: MIC, conventional broth-dilution microtiter test; type: cell-based; conditions: Mycoplasmoides gallisepticum
Method in brief: as §3

[19] = system: Pasteurella hemolytica 23C; assay: MIC, conventional broth-dilution microtiter test; type: cell-based
Method in brief: as §3

[20] = system: Pasteurella hemolytica 22C; assay: MIC, conventional broth-dilution microtiter test; type: cell-based; conditions: broth-dilution microtiter; Pasteurella hemolytica 22C; read-out: MIC
Method in brief: as §3

[21] = system: Pasteurella multocida 60A; assay: MIC, conventional broth-dilution microtiter test; type: cell-based
Method in brief: as §3

[22] = system: Pasteurella multocida 22A; assay: MIC, conventional broth-dilution microtiter test; type: cell-based
Method in brief: as §3

[23] = system: Pasteurella multocida 40G; assay: MIC, conventional broth-dilution microtiter test; type: cell-based
Method in brief: as §3

Staphylococcus aureus = assay: MIC, conventional broth-dilution microtiter test; type: cell-based; conditions: broth-dilution microtiter, read-out: MIC
Method: as §2

Mycoplasma hyorhinis = assay: MIC, conventional broth-dilution microtiter test; type: cell-based; conditions: broth-dilution microtiter; Mycoplasma hyorhinis; read-out: MIC
Method in brief: as §4

[24] = system: Mycoplasma gallisepticum 41313; assay: MIC, conventional broth-dilution microtiter test; type: cell-based; conditions: Mycoplasmoides gallisepticum
Method in brief: as §3

[25] = system: Streptococcus pyogenes C203; assay: Protection of mice experimentally infected with S. pyogenes C203; type: in vivo; conditions: mg/kg × 2, doses given 1 and 4 hours postinfection
Method: Some of the derivatives of this invention have shown in vivo antimicrobial activity against experimentally-induced infections in laboratory animals. When two doses of test compound were administered to mice experimentally infected with S. pyogenes C203, the activity observed was measured as an ED50 value [effective dose in mg/kg to protect 50% of the test animals: see Warren Wick, et al., J. Bacteriol. 81, 233-235 (1961)].

Pasteurella multocida = assay: Pasteurella infection in one-day old chicks; type: in vivo; conditions: subcutaneous, 30 mg/kg × 2, 1 and 4 hours post-challenge
Method: Certain of the formula 1 compounds of this invention have also shown in vivo activity against infections induced by gram-negative bacteria. Table V summarizes the results of tests in which illustrative compounds were evaluated against a Pasteurella infection in one-day old chicks. The compounds were administered parenterally after challenge of the chicks with Pasteurella multocida (0.1 ml of a 10^-4 dilution of a twenty-hour tryptose broth culture of an avian P. multocida given subcutaneously). In these tests, unless indicated otherwise, all non-medicated infected chicks died within 24 hours of Pasteurella challenge. In the tests summarized in Table V, the compounds were administered by subcutaneous injection at a dosage of 30 mg/kg, 1 and 4 hours post-challenge of the chicks with P. multocida.

Which MIC [1] does the source give for `CCC1OC(=O)CC(O)C(C)C(OC2OC(C)C(O)C(N(C)C)C2O)C(CCNCCc2ccccc2)CC(C)C(=O)C=CC(C)=CC1CO` (stereo not drawn) [Compound 5, 20-N-Phenethylamino-20-deoxy-20-dihydro-OMT] here?
Its MIC is 8 µg/mL (≈ 11.4 µM).

And the MIC [2]?
The MIC was 4 µg/mL (≈ 5.69 µM).

And the MIC [3]?
The MIC was 16 µg/mL (≈ 22.8 µM).

And the MIC ([4]; Staphylococcus aureus, X400)?
Its MIC is 16 µg/mL (≈ 22.8 µM).

And the MIC ([5]; Haemophilus influenzae)?
The MIC was 8 µg/mL (≈ 11.4 µM).

And the MIC ([6]; Haemophilus influenzae, 76)?
The MIC was 8 µg/mL (≈ 11.4 µM).

What about the MIC [7] of the same compound?
Its MIC is 8 µg/mL (≈ 11.4 µM).

What about the MIC ([8]; agar-dilution, Streptococcus 9960, read-out: MIC) of the same compound?
Its MIC is 16 µg/mL (≈ 22.8 µM).

What about the MIC [9] of the same compound?
The MIC was 8 µg/mL (≈ 11.4 µM).

And the MIC (Escherichia coli TEM; Escherichia coli)?
The MIC was 8 µg/mL (≈ 11.4 µM).

And the MIC [10]?
Its MIC is > 128 µg/mL.

What about the MIC ([11]; Streptococcus pyogenes, C203) of the same compound?
Its MIC is 2 µg/mL (≈ 2.85 µM).

And the MIC (Escherichia coli EC14; Escherichia coli, EC14)?
Its MIC is 64 µg/mL (≈ 91 µM).

And the MIC [12]?
The MIC was 1 µg/mL (≈ 1.42 µM).

What about the MIC [13] of the same compound?
The MIC was 4 µg/mL (≈ 5.69 µM).

And the MIC [14]?
Its MIC is 4 µg/mL (≈ 5.69 µM).

And the MIC ([15]; broth-dilution microtiter, Pasteurella multocida 17E, Bovine isolate, read-out: MIC)?
The MIC was 3.12 µg/mL (≈ 4.44 µM).

And the MIC (Mycoplasma synoviae)?
Its MIC is 3.12 µg/mL (≈ 4.44 µM).

And the MIC ([16]; broth-dilution microtiter, Pasteurella hemolytica 41D, read-out: MIC)?
The MIC was 3.12 µg/mL (≈ 4.44 µM).

And the MIC [17]?
The MIC was 1.56 µg/mL (≈ 2.22 µM).

What about the MIC (Streptococcus sp. 80; Streptococcus, SP.80) of the same compound?
The MIC was 1.56 µg/mL (≈ 2.22 µM).

What about the MIC (Mycoplasma gallisepticum) of the same compound?
Its MIC is 1.56 µg/mL (≈ 2.22 µM).

And the MIC [18]; 34159?
Its MIC is 50 µg/mL (≈ 71.1 µM).

And the MIC ([19]; broth-dilution microtiter, Pasteurella hemolytica 23C, read-out: MIC)?
Its MIC is 3.12 µg/mL (≈ 4.44 µM).

What about the MIC [20] of the same compound?
The MIC was 6.25 µg/mL (≈ 8.89 µM).

What about the MIC ([21]; broth-dilution microtiter, Pasteurella multocida 60A, Avian isolate, read-out: MIC) of the same compound?
The MIC was 3.12 µg/mL (≈ 4.44 µM).

What about the MIC ([22]; broth-dilution microtiter, Pasteurella multocida 22A, read-out: MIC) of the same compound?
The MIC was 6.25 µg/mL (≈ 8.89 µM).

And the MIC ([23]; broth-dilution microtiter, Pasteurella multocida 40G, read-out: MIC)?
The MIC was 6.25 µg/mL (≈ 8.89 µM).

And the MIC (Staphylococcus aureus)?
The MIC was 6.25 µg/mL (≈ 8.89 µM).

And the MIC (Mycoplasma hyorhinis)?
The MIC was > 50 µg/mL.

What about the MIC [24]; 41313 of the same compound?
The MIC was 50 µg/mL (≈ 71.1 µM).

And the ED50 ([25]; C203, mice, oral, read-out: ED50 Oral)?
The ED50 was > 100 mg/kg.

And the ED50 ([25]; C203, sc, mice, subcutaneous, read-out: ED50 Subcutaneous)?
The ED50 was 7.2 mg/kg.

And the “Number of Deaths/Number Treated” value (Pasteurella multocida)?
The value was 1/10.

Which results are given for `CCC1OC(=O)CC(O)C(C)C(OC2OC(C)C(O)C(N(C)C)C2O)C(CCOc2ccccc2)CC(C)C(=O)C=CC(C)=CC1CN1CCCCCCC1` (stereo not drawn) [Compound 34, 20-O-Phenyl-20-dihydro-23-Octahydroazocin-1-yl-OMT]?
MIC [1]: 0.25 µg/mL (≈ 0.324 µM); MIC [2]: 0.25 µg/mL (≈ 0.324 µM); MIC [3]: 0.12 µg/mL (≈ 0.156 µM); MIC ([4]; agar-dilution, Staphylococcus aureus X400, Methicillin-resistant strain, read-out: MIC): 0.5 µg/mL (≈ 0.648 µM); MIC ([5]; agar-dilution, Haemophilus influenzae C.L., Ampicillin-sensitive strain, read-out: MIC): 4 µg/mL (≈ 5.19 µM); MIC ([6]; agar-dilution, Haemophilus influenzae 76, Ampicillin-resistant strain, read-out: MIC): 8 µg/mL (≈ 10.4 µM); MIC [7]: 2 µg/mL (≈ 2.59 µM); MIC [8]; 9960: 2 µg/mL (≈ 2.59 µM); MIC [9]: 0.25 µg/mL (≈ 0.324 µM); MIC (Escherichia coli TEM; agar-dilution, Escherichia coli TEM, read-out: MIC): 8 µg/mL (≈ 10.4 µM); MIC [10]: > 128 µg/mL; MIC ([11]; agar-dilution, Streptococcus pyogenes C203, read-out: MIC): 0.12 µg/mL (≈ 0.156 µM); MIC (Escherichia coli EC14; agar-dilution, Escherichia coli EC14, read-out: MIC): > 128 µg/mL; MIC [12]: 0.12 µg/mL (≈ 0.156 µM); MIC [13]: 8 µg/mL (≈ 10.4 µM); MIC [14]: 0.25 µg/mL (≈ 0.324 µM); MIC ([15]; Pasteurella multocida, 17E): 3.12 µg/mL (≈ 4.05 µM); MIC (Mycoplasma synoviae): 12.5 µg/mL (≈ 16.2 µM); MIC ([16]; Pasteurella, 41D): 3.12 µg/mL (≈ 4.05 µM); MIC [17]: 3.12 µg/mL (≈ 4.05 µM); MIC (Streptococcus sp. 80; broth-dilution microtiter, Streptococcus sp. 80, read-out: MIC): 0.78 µg/mL (≈ 1.01 µM); MIC (Mycoplasma gallisepticum): 0.097 µg/mL (≈ 0.126 µM); MIC ([18]; broth-dilution microtiter, Mycoplasma gallisepticum 34159, Resistant strain, read-out: MIC): 50 µg/mL (≈ 64.8 µM); MIC ([19]; Pasteurella, 23C): 3.12 µg/mL (≈ 4.05 µM); MIC [20]: 1.56 µg/mL (≈ 2.02 µM); MIC ([21]; Pasteurella multocida, 60A): 6.25 µg/mL (≈ 8.11 µM); MIC ([22]; Pasteurella multocida, 22A): 6.25 µg/mL (≈ 8.11 µM); MIC ([23]; Pasteurella multocida, 40G): 3.12 µg/mL (≈ 4.05 µM); MIC (Staphylococcus aureus): 0.39 µg/mL (≈ 0.506 µM); MIC (Mycoplasma hyorhinis): 50 µg/mL (≈ 64.8 µM); MIC ([24]; broth-dilution microtiter, Mycoplasma gallisepticum 41313, Resistant strain, read-out: MIC): 25 µg/mL (≈ 32.4 µM); Number of Deaths/Number Treated (Pasteurella multocida): 10/10
